Laboratory results from US20220304951A1, “ANTICANCER COMPOSITIONS AND METHODS FOR USING SAME” (Lispiro LLC, priority 2021, published 2022).

Key:
Type in all cases: cell-based
[1] = system: normal human epithelial like cells (CRL-1790); assay: New fuchsine treatment of normal human epithelial like cells, H&E staining, light microscopy (Example 2); details: all tested concentrations (50 uM), 12 hours, H&E stain
Method: (§1) 2 flasks Thermo Scientific Nunc Nunclon Delta Surface 12.5 cm (Cat. No 136196) with McCoy's5A complete medium were seeded with cell culture of CRL1790 (ATCC) and 2 flasks Thermo Scientific Nunc Nunclon Delta Surface 12.5 cm (Cat. No 136196) with DMEM complete medium were seeded with cell culture of HT1080 (ATCC) and were kept at 37 degrees 5% CO2 in CO2 incubator until it reached of 100% confluence (2 days). After reaching of 100% confluence medium with 10% of FBS was changed to the same medium with different concertation of New Fuchsin (0 uM, and 50 uM) (Sigma Cat. No 72200). Flasks were kept in the CO2 incubator 5% CO2, 37-degree C for additional 12 hours. After 12 hours of treatment all flasks were stained by fixed by 10% Formaldehyde and stained by H&E. After completing of the staining protocol the flasks were examined in the light microscope under magnification x100 and multiple pictures were taken using Olympus BX51 microscope and Olympus DP73 digital camera.

[2] = system: Fibrosarcoma cells (HT-1080); assay: New fuchsine treatment of human fibrosarcoma cells, H&E staining, light microscopy (Example 2); details: new fuchsine 50 uM, 12 hours, H&E stain; corresponds to empty plastic
Method: as §1

[3] = system: human colon adenocarcinoma cells (HT29); assay: New fuchsine treatment of HT29 cells, Trypan blue, automatic cell counter (Example 4)
Method: (§2) The general study methods of study were as follows: HT29 cells were grown in incubator at 37 degrees C. and 5% CO2 until 70% confluence was reached. After reaching of 70% confluence, medium was changed to medium with different concentration of new fuchsine (0 μM, 15 μM, 31 μM, 62 μM, 125 μM and 250 μM). Flasks were kept in the CO2 incubator (5% CO2, 37-degree C) for additional 24 hours. After 24 hours of treatment cells were detached with Trypsin, washed with fresh medium and stained with Trypan blue. Cell viability was examined in automatic cell counter (Invitrogen).

[4] = system: Human colon carcinoma cells (HT29); assay: New fuchsine treatment of human colon carcinoma cells, H&E staining, light microscopy (Example 1); details: 48 hours, H&E stain
Method: (§3) 4 flasks Thermo Scientific Nunc Nunclon Delta Surface 12.5 cm (Cat.No136196) with McCoy's5A complete medium were seeded with cell culture of CRL1790 (ATCC) and 4 flasks Thermo Scientific Nunc Nunclon Delta Surface 12.5 cm (Cat.No136196) with McCoy's5A complete medium were seeded with cell culture of HT29 (ATCC) and were kept at 37 degrees 5% CO2 in CO2 incubator until it reached of 70% confluence (2 days). After reaching of 70% confluence flasks McCoy's5A medium with 10% of FBS was changed to the same medium with different concertation of new fuchsine (0 uM, 25 uM, 50 uM, 100 uM, 150 uM) (Sigma Cat. No 72200). Flasks were kept in the CO2 incubator 5% CO2, 37-degree C for additional 48 hours. After 48 hours of treatment all flasks were stained by fixed by 10% Formaldehyde and stained by H&E. After completing of the staining protocol the flasks were examined in the light microscope under magnification x100 and multiple pictures were taken using Olympus BX51 microscope and Olympus DP73 digital camera.

[5] = system: Human Cervical carcinoma cell line (HeLa); assay: New fuchsine treatment of HeLa cells, Trypan blue, automatic cell counter (Example 3)
Method: as §2, with “Hela cells” for “The general study methods of study were as follows: HT29 cells”, “were growing” for “were grown”, “different concentrations” for “different concentration”, “of treatment,” for “of treatment”, “blue. Number of cells and” for “blue. Cell”, “viability were” for “viability was”

[6] = system: normal human epithelial like cells (CRL-1790); assay: New fuchsine treatment of normal human epithelial like cells, H&E staining, light microscopy (Example 1); details: all tested concentrations (25, 50, 100, 150 uM), 48 hours, H&E stain
Method: as §3

[7] = new fuchsine 250 uM, 24 hours, Trypan blue

CC1=CC(=C(c2ccc(N)c(C)c2)c2ccc(N)c(C)c2)C=CC1=N.Cl [new fuchsine, [4-[bis(4-amino-3-methylphenyl)methylidene]-2-methylcyclohexa-2,5-dien-1-ylidene]azanium; chloride]
visual toxicity to normal human epithelial like cells (CRL-1790) [1]: did not exhibit any visual toxicity
toxicity to Fibrosarcoma cells (HT-1080) [2]: 100%
toxicity to human colon adenocarcinoma cells (HT29) ([3]; all tested concentrations (15, 31, 62, 125, 250 μM), 24 hours, Trypan blue viability): did exhibit toxicity
toxicity to colon adenocarcinoma cells (HT29) [3, 7]: < 100%
efficacy for colon carcinoma (HT29 cells) compared with cervical carcinoma (HeLa cells), summary ([3]; summary of the examples): much less effective
concentration at which first signs of toxicity to colon carcinoma cells (HT29) can be seen [4]: 50 µM
toxicity to carcinoma cells (HT29) ([4]; new fuchsine 150 uM, corresponds to empty plastic): 100%
toxicity to human carcinoma cells (HeLa) ([5]; all tested concentrations (15, 31, 62, 125, 250 μM), 24 hours, Trypan blue viability and cell count): exhibited toxicity
toxicity to carcinoma cells (HeLa) [5, 7]: 100%
cytotoxic effect on cervical carcinoma (HeLa cells), summary ([5]; summary of the examples): high efficacy, dose dependent cytotoxic effect
visual toxicity to normal human epithelial like cells (CRL-1790) [6]: did not exhibit any visual toxicity
